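Test compounds were applied to cells in 96-well plates for 48 hours at 5 doses. The concentration for 50% growth inhibition is given as GI50. The concentration for full growth arrest is given as TGI.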
Tests used:
Test in all cases: NCI-60 cell line screen, 48 h
NCI-H23 lung = tested on: NCI-H23 lung
NCI-H460 lung = tested on: NCI-H460 lung
NCI-H522 lung = tested on: NCI-H522 lung
NCI/ADR-RES ovarian = tested on: NCI/ADR-RES ovarian
OVCAR-3 ovarian = tested on: OVCAR-3 ovarian
OVCAR-4 ovarian = tested on: OVCAR-4 ovarian
OVCAR-5 ovarian = tested on: OVCAR-5 ovarian
OVCAR-8 ovarian = tested on: OVCAR-8 ovarian
PC-3 prostate = tested on: PC-3 prostate
RPMI-8226 leukemia = tested on: RPMI-8226 leukemia
RXF 393 renal = tested on: RXF 393 renal
SF-268 CNS = tested on: SF-268 CNS
SF-295 CNS = tested on: SF-295 CNS
SF-539 CNS = tested on: SF-539 CNS
SK-MEL-2 melanoma = tested on: SK-MEL-2 melanoma
SK-MEL-28 melanoma = tested on: SK-MEL-28 melanoma
SK-MEL-5 melanoma = tested on: SK-MEL-5 melanoma
SK-OV-3 ovarian = tested on: SK-OV-3 ovarian
SN12C renal = tested on: SN12C renal
SNB-19 CNS = tested on: SNB-19 CNS
SNB-75 CNS = tested on: SNB-75 CNS
SR leukemia = tested on: SR leukemia
SW-620 colon = tested on: SW-620 colon
T-47D breast = tested on: T-47D breast
TK-10 renal = tested on: TK-10 renal
U251 CNS = tested on: U251 CNS
UACC-257 melanoma = tested on: UACC-257 melanoma
UACC-62 melanoma = tested on: UACC-62 melanoma
UO-31 renal = tested on: UO-31 renal

**Q.** Which GI50 (NCI-H23 lung) does the source give for `C=C(C)C(=O)Nc1ccc(NC(C)C)cc1` here?
**A.** > 100 µM

**Q.** And the TGI (NCI-H23 lung)?
**A.** > 100 µM

**Q.** And the GI50 (NCI-H460 lung)?
**A.** > 100 µM

**Q.** What about the TGI (NCI-H460 lung) of the same compound?
**A.** > 100 µM

**Q.** What about the GI50 (NCI-H522 lung) of the same compound?
**A.** > 100 µM

**Q.** And the TGI (NCI-H522 lung)?
**A.** > 100 µM

**Q.** What about the GI50 (NCI/ADR-RES ovarian) of the same compound?
**A.** > 100 µM

**Q.** What about the TGI (NCI/ADR-RES ovarian) of the same compound?
**A.** > 100 µM

**Q.** And the GI50 (OVCAR-3 ovarian)?
**A.** > 100 µM

**Q.** What about the TGI (OVCAR-3 ovarian) of the same compound?
**A.** > 100 µM

**Q.** And the GI50 (OVCAR-4 ovarian)?
**A.** > 100 µM

**Q.** And the TGI (OVCAR-4 ovarian)?
**A.** > 100 µM

**Q.** And the GI50 (OVCAR-5 ovarian)?
**A.** > 100 µM

**Q.** What about the TGI (OVCAR-5 ovarian) of the same compound?
**A.** > 100 µM

**Q.** And the GI50 (OVCAR-8 ovarian)?
**A.** > 100 µM

**Q.** And the TGI (OVCAR-8 ovarian)?
**A.** > 100 µM

**Q.** And the GI50 (PC-3 prostate)?
**A.** > 100 µM

**Q.** And the TGI (PC-3 prostate)?
**A.** > 100 µM

**Q.** And the GI50 (RPMI-8226 leukemia)?
**A.** > 100 µM

**Q.** What about the TGI (RPMI-8226 leukemia) of the same compound?
**A.** > 100 µM

**Q.** What about the GI50 (RXF 393 renal) of the same compound?
**A.** > 100 µM

**Q.** And the TGI (RXF 393 renal)?
**A.** > 100 µM

**Q.** And the GI50 (SF-268 CNS)?
**A.** > 100 µM

**Q.** What about the TGI (SF-268 CNS) of the same compound?
**A.** > 100 µM

**Q.** What about the GI50 (SF-295 CNS) of the same compound?
**A.** > 100 µM

**Q.** What about the TGI (SF-295 CNS) of the same compound?
**A.** > 100 µM

**Q.** And the GI50 (SF-539 CNS)?
**A.** > 100 µM

**Q.** What about the TGI (SF-539 CNS) of the same compound?
**A.** > 100 µM

**Q.** What about the GI50 (SK-MEL-2 melanoma) of the same compound?
**A.** > 100 µM

**Q.** What about the TGI (SK-MEL-2 melanoma) of the same compound?
**A.** > 100 µM

**Q.** What about the GI50 (SK-MEL-28 melanoma) of the same compound?
**A.** > 100 µM

**Q.** And the TGI (SK-MEL-28 melanoma)?
**A.** > 100 µM

**Q.** And the GI50 (SK-MEL-5 melanoma)?
**A.** > 100 µM

**Q.** And the TGI (SK-MEL-5 melanoma)?
**A.** > 100 µM

**Q.** What about the GI50 (SK-OV-3 ovarian) of the same compound?
**A.** > 100 µM

**Q.** And the TGI (SK-OV-3 ovarian)?
**A.** > 100 µM

**Q.** And the GI50 (SN12C renal)?
**A.** > 100 µM

**Q.** And the TGI (SN12C renal)?
**A.** > 100 µM

**Q.** And the GI50 (SNB-19 CNS)?
**A.** > 100 µM

**Q.** What about the TGI (SNB-19 CNS) of the same compound?
**A.** > 100 µM

**Q.** What about the GI50 (SNB-75 CNS) of the same compound?
**A.** > 100 µM

**Q.** What about the TGI (SNB-75 CNS) of the same compound?
**A.** > 100 µM

**Q.** And the GI50 (SR leukemia)?
**A.** > 100 µM

**Q.** What about the TGI (SR leukemia) of the same compound?
**A.** > 100 µM

**Q.** And the GI50 (SW-620 colon)?
**A.** > 100 µM

**Q.** And the TGI (SW-620 colon)?
**A.** > 100 µM

**Q.** What about the GI50 (T-47D breast) of the same compound?
**A.** > 100 µM

**Q.** What about the TGI (T-47D breast) of the same compound?
**A.** > 100 µM

**Q.** And the GI50 (TK-10 renal)?
**A.** > 100 µM

**Q.** And the TGI (TK-10 renal)?
**A.** > 100 µM

**Q.** And the GI50 (U251 CNS)?
**A.** > 100 µM

**Q.** What about the TGI (U251 CNS) of the same compound?
**A.** > 100 µM

**Q.** What about the GI50 (UACC-257 melanoma) of the same compound?
**A.** > 100 µM

**Q.** And the TGI (UACC-257 melanoma)?
**A.** > 100 µM

**Q.** And the GI50 (UACC-62 melanoma)?
**A.** > 100 µM

**Q.** What about the TGI (UACC-62 melanoma) of the same compound?
**A.** > 100 µM

**Q.** What about the GI50 (UO-31 renal) of the same compound?
**A.** > 100 µM

**Q.** And the TGI (UO-31 renal)?
**A.** > 100 µM
